Data from patent publication US20250326765A1, “PDE4B INHIBITOR AND USE THEREOF” (XIZANG HAISCO PHARMACEUTICAL CO., LTD., priority 2022, published 2025).
Read-outs that look alike come from different tables or passages of the source.

Legend:
[1] = Inhibition of LPS-induced TNF-α release from human peripheral blood mononuclear cells in vitro; assay type: cell-based; conditions: PBMC, hPBMC, 100 ng/mL LPS, 4 h; for IC50: class symbols, read-out: Re IC50 (nM) (relative IC50), TNF-α induced by LPS; for Emax: read-out: Max inhibition (%)
Description: Normal human peripheral blood which was anticoagulated (citric acid anticoagulation) was collected, and hPBMCs were prepared by Ficoll-Paque PLUS (Cytiva, Cat #17144002, density 1.077 g/mL). The concentration of hPBMC cells was adjusted to 0.25×10^6 cells/mL with RPMI1640 medium and inoculated into a 96-well plate in an amount of 50000 cells per well. Subsequently, different concentrations of drugs were added for pre-incubation for 1 h (the DMSO final concentration was 0.1%, and the positive and negative control wells had the same volume of RPMI1640 containing 0.1% DMSO). After the pre-incubation was complete, 100 ng/mL LPS (SIGMA, L2630) was added to the compound and positive control wells, and the negative control well had the same volume of RPMI1640 containing 0.1% DMSO. Incubation was carried out for 4 h in an incubator at 37° C. and 5% CO2. The cell supernatant was collected, and the content of TNF-α in the supernatant sample was detected by human TNF-α Elisa quantitative test kit (Sino Biological, Cat #KIT10602). The IC50 value was calculated using GraphPad Prism software.

[2] = target: T1, PDE4B2 (Homo sapiens, UniProt Q07343); test: Effect of compounds on PDE4B2 activity (fluorescence polarization kit); assay type: biochemical
T1 construct: purchased BPS Bioscience 60343
Description: The effect of compounds on PDE4B2 activity was detected by a fluorescence polarization kit (BPS Bioscience, Catalog #60343). According to the instructions of the kit, FAM-Cyclic-3′,5′-AMP at a final concentration of […], 1 ng/well of PDE4B2 (PDE buffer was added to the negative control well), and a compound diluted in a gradient manner (PDE buffer containing 10% DMSO was added to the positive control well) were added to each well, fully mixed, and then reacted at room temperature for 1 h. The Binding Agent was diluted with the Binding Agent Diluent (cAMP) at a ratio of 1:100 for later use, the Binding Agent dilution was taken and added to the test plate at 50 μl/well and incubated at room temperature with slow shaking for 20 minutes. After the incubation was complete, Envision was used for FP detection, with Excitation at 480 nm and Emission at 535 nm. FP was usually represented by mP value.
[formula] • I∥ (S535): fluorescence intensity in parallel direction • I⊥ (P535): fluorescence intensity in perpendicular direction • G: G factor=1
(§1) [formula] • mP(sample): mP of the test compound in a reaction well • mP(negative control): mP in the negative control well • mP(positive control): mP in the positive control well
(§2) According to the calculated inhibition rate at each concentration, the IC50 value of each compound was calculated by GraphPad Prism 8 software.

[3] = target: T2, PDE4D2 (Homo sapiens, UniProt Q08499); test: Effect of compounds on PDE4D2 activity (fluorescence polarization kit); assay type: biochemical; conditions: class symbols
T2 construct: purchased BPS Bioscience 60345
Description: The effect of compounds on PDE4D2 activity was detected by a fluorescence polarization kit (BPS Bioscience, Catalog #60345). During the reaction, 12.5 μL of 0.272 ng/well of an enzyme (final concentration: 0.068 ng/well) and 12.5 μL of the compound diluted in a gradient manner (DMSO concentration: 4%) were first pre-incubated at room temperature for 15 minutes, the same volume of the enzyme at the same concentration and 12.5 μL of PDE buffer containing 4% DMSO were added to the positive control well, and 25 μL of PDE buffer containing 2% DMSO was added to the negative control well. After completion, 25 μL of […] FAM-Cyclic-3′,5′-AMP (final concentration: […]) was added to each well, fully mixed, and then incubated at room temperature with slow shaking for 30 minutes. The Binding Agent was diluted with the Binding Agent Diluent (cAMP) at a ratio of 1:100 for later use, 100 μl/well of the Binding Agent dilution was taken and added to all wells of the test plate and incubated at room temperature with slow shaking for 1 hour.
After the incubation was complete, BMG LRBTECH microplate reader was used for FP detection, with Excitation at 485 nm and Emission at 520 nm. FP was usually represented by mP value.
[formula] • I∥ (S520): fluorescence intensity in parallel direction • I⊥ (P520): fluorescence intensity in perpendicular direction • G: G factor=1
as §1, §2

[4] = Pharmacokinetic test in mice; assay type: in vivo, ICR mice
Description: 5.1 Experimental animals: Male ICR mice, 20-25 g, 6 mice/compound. Purchased from Chengdu Ddossy Experimental Animals Co., Ltd.
5.2 Experimental design: On the day of the experiment, 42 ICR mice were randomly grouped according to their body weights. The animals were fasted with water available for 12-14 h one day before administration and fed 4 h after administration.
Before and after administration, 0.06 mL of blood was taken from the orbit under isoflurane anesthesia and placed in an EDTAK2 centrifuge tube for centrifugation at 5000 rpm at 4-C for 10 min, followed by plasma collection. The blood collection time points for the intravenous group and intragastric group were both 0 m, 5 mi, 15 mi, 30 mi, 1 h, 2 h, 4 h, 6 h, 8 h, and 24 h. Before analysis and detection, all the samples were stored at −80° C., and the samples were subjected to quantitative analysis using LC-MS/MS.

[5] = class symbols, read-out: PDE4B2 IC50
[6] = male, ICR, mouse, iv, plasma, i.v. (5 mg/kg)
[7] = male, ICR, mouse, po, plasma, i.g. (10 mg/kg)

T2 sequence (Q08499 303-809): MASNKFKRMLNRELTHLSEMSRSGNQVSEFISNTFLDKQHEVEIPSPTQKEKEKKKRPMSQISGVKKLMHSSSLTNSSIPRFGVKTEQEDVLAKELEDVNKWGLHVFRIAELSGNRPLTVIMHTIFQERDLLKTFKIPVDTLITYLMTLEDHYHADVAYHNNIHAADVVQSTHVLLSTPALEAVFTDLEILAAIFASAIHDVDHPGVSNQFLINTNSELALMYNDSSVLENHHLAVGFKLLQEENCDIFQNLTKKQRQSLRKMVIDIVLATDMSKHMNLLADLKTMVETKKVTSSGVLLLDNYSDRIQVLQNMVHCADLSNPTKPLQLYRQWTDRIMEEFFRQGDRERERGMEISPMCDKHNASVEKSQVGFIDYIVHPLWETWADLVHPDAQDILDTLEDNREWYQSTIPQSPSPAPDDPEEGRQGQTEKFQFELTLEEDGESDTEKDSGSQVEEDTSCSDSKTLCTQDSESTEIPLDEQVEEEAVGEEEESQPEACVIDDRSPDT
T1 sequence (Q07343 1-564 isoform Q07343-2): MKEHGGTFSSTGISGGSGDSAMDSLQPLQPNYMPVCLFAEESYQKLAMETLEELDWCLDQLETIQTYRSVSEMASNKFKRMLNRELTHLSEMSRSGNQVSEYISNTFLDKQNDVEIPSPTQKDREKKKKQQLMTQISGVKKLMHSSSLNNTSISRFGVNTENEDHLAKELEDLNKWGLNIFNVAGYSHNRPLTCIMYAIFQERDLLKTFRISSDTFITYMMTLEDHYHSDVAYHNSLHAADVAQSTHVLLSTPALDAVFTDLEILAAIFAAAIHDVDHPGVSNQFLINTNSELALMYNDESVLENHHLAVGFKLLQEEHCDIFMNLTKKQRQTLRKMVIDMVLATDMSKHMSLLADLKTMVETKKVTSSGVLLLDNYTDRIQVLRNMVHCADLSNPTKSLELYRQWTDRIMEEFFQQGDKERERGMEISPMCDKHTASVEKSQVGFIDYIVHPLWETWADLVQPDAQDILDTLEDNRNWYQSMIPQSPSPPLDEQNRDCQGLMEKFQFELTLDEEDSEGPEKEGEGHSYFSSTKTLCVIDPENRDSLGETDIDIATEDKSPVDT

| SMILES | IC50 [2, 5] [nM] | IC50 [3] [nM] | also measured |
| --- | --- | --- | --- |
| [O-][S@+]1CCc2nc(N3CC=C(c4ccc(Cl)cc4)CC3)nc(NC3(CO)CCC3)c21 [Compound 1] | < 10 | < 10 | F ([4]; i.g. (10 mg/kg)): 76.2 ± 4.7%; AUC(0-t) [4, 6]: 8660 ± 759 ng·h/mL; clearance [4, 6]: 4.55 ± 0.46 mL/min/kg; half-life [4, 6]: 6.17 ± 0.71 h; Vd ([4]; male, ICR, mouse, iv, plasma, i.v. (5 mg/kg), read-out: Vdss): 2.07 ± 0.2 L/kg; AUC(0-t) [4, 7]: 26400 ± 1640 ng·h/mL; half-life [4, 7]: 15.7 ± 4.1 h; IC50 ([2]; values in text, read-out: IC50 against PDE4B2): 2.45 nM |
| [O-][S@+]1CCc2nc(N3CC=C(c4ccc(Cl)cc4)CCC3)nc(NC3(CO)CCC3)c21 [Compound 4] | 10 to 50 | 10 to 50 | – |
| [O-][S@+]1CCc2nc(N3C[C@H]4CN(c5ccc(Cl)cc5)C[C@H]4C3)nc(NC3(CO)CCC3)c21 [Compound 6] | 10 to 50 | < 10 | – |
| [O-][S@+]1CCc2nc(N3CCC(c4ccc5c(c4)CC5)CC3)nc(NC3(CO)CCC3)c21 [Compound 8] | 10 to 50 | 10 to 50 | – |
| [O-][S@+]1CCc2nc(N3CCC(c4ccc5c(c4)CCC5)CC3)nc(NC3(CO)CCC3)c21 [Compound 9] | – | 10 to 50 | – |
| [O-][S@+]1CCc2nc(N3CC4(CC(c5ccc(Cl)cc5)C4)C3)nc(NC3(CO)CCC3)c21 [Compound 10] | 10 to 50 | 10 to 50 | – |
| [O-][S+]1CCc2nc(N3CCC4=C(CCc5cc(Cl)ccc54)C3)nc(NC3(CO)CCC3)c21 (stereo not drawn) [Compound 30] | – | < 10 | – |
| [O-][S@+]1CCc2nc(C3=CCN(c4ncc(Cl)cn4)CC3)nc(NC3(CO)CCC3)c21 [Compound 32] | – | 10 to 50 | – |
| [O-][S@+]1CCc2nc(N3CCC(c4ccc(Cl)cc4)=C(F)C3)nc(NC3(CO)CCC3)c21 [Compound 43] | < 10 | 10 to 50 | – |
| N#Cc1cnc(C2=CCN(c3nc4c(c(NC5(CO)CCC5)n3)[S@+]([O-])CC4)CC2)nc1 [Compound 50] | 10 to 50 | 10 to 50 | – |
| [O-][S@+]1CCc2nc(N3CC=C(c4cccc(S(F)(F)(F)(F)F)c4)CC3)nc(NC3(CO)CCC3)c21 [Compound 51] | < 10 | 10 to 50 | – |
| [O-][S@+]1CCc2nc(N3CC=C(c4cccc(SC(F)(F)F)c4)CC3)nc(NC3(CO)CCC3)c21 [Compound 52] | – | 10 to 50 | – |
| [O-][S+]1CCc2nc(N3CC=C(c4ncc(C5CC5)cn4)CC3)nc(NC3(CO)CCC3)c21 (stereo not drawn) [Compound 53] | < 10 | < 10 | – |
| C[Si]1(C)CCN(c2cnc(C3=CCN(c4nc5c(c(NC6(CO)CCC6)n4)[S@+]([O-])CC5)CC3)nc2)CC1 [Compound 54] | < 10 | < 10 | IC50 [1]: 10 to 50 nM; Emax [1]: 78.4% |
| Cc1nnc(C2=CCN(c3nc4c(c(NC5(CO)CCC5)n3)[S@+]([O-])CC4)CC2)o1 [Compound 55] | < 10 | < 10 | IC50 [1]: 10 to 50 nM; Emax [1]: 67.2% |
| [O-][S@+]1CCc2nc(N3CC=C(c4nc5ccccc5s4)CC3)nc(NC3(CO)CCC3)c21 [Compound 56] | < 10 | < 10 | – |
| C#Cc1cnc(N2CCN(c3nc4c(c(NC5(CO)CCC5)n3)[S+]([O-])CC4)CC2)nc1 (stereo not drawn) [Compound 57] | 10 to 50 | 10 to 50 | – |

More lines, main results first:

| IC50 [2, 5] [nM] | IC50 [3] [nM] | SMILES | also measured |
| --- | --- | --- | --- |
| < 10 | < 10 | N#Cc1ccc2c(c1)OCC1CN(c3nc4c(c(NC5(CO)CCC5)n3)[S+]([O-])CC4)CCN21 (single isomer, unassigned) [Compound 74-1] | IC50 [1]: 10 to 50 nM; Emax [1]: 72.4% |
| 10 to 50 | – | CC(=O)N1CCN2c3ccc(-c4nc5c(c(NC6(CO)CCC6)n4)[S+]([O-])CC5)cc3OCC2C1 (single isomer, unassigned) [Compound 78-1] | IC50 [1]: < 10 nM; Emax [1]: 61.2% |
| < 10 | < 10 | CC1CN(c2ccc3c(c2)OCC2CN(c4nc5c(c(NC6(CO)CCC6)n4)[S@+]([O-])CC5)CCN32)C1 (single isomer, unassigned) [Compound 81-2] | – |
| < 10 | < 10 | [O-][S@+]1CCc2nc(N3CC=C(c4nc5ccccc5o4)CC3)nc(NC3(CO)CCC3)c21 [Compound 58] | – |
| 10 to 50 | 10 to 50 | CP(C)(=O)c1cnc(C2=CCN(c3nc4c(c(NC5(CO)CCC5)n3)[S@+]([O-])CC4)CC2)nc1 [Compound 59] | – |
| 10 to 50 | 10 to 50 | Cc1coc(C2=CCN(c3nc4c(c(NC5(CO)CCC5)n3)[S@+]([O-])CC4)CC2)n1 [Compound 60] | – |
| < 10 | < 10 | CP(C)(=O)c1cccc(C2=CCN(c3nc4c(c(NC5(CO)CCC5)n3)[S@+]([O-])CC4)CC2)c1 [Compound 63] | – |
| < 10 | 10 to 50 | N#CC1(c2cnc(C3=CCN(c4nc5c(c(NC6(CO)CCC6)n4)[S@+]([O-])CC5)CC3)nc2)CC1 [Compound 64] | IC50 [1]: < 10 nM; Emax [1]: 70.8% |
| < 10 | < 10 | [O-][S@+]1CCc2nc(N3C[C@H]4CN(c5ncc6c(n5)CC6)C[C@H]4C3)nc(NC3(CO)CCC3)c21 [Compound 65] | IC50 [1]: 10 to 50 nM; Emax [1]: 82% |
| < 10 | < 10 | [O-][S@+]1CCc2nc(N3CC=C(c4ccc5c(c4)COB5O)CC3)nc(NC3(CO)CCC3)c21 [Compound 66] | IC50 [1]: 10 to 50 nM; Emax [1]: 79.3% |
| 10 to 50 | 10 to 50 | CP(C)(=O)c1ccnc(C2=CCN(c3nc4c(c(NC5(CO)CCC5)n3)[S@+]([O-])CC4)CC2)n1 [Compound 71] | – |
| < 10 | < 10 | CC#Cc1ccc(C2=CCN(c3nc4c(c(NC5(CO)CCC5)n3)[S@+]([O-])CC4)CC2)nc1 [Compound 82] | – |
